“And” between values parts separate entries of the source, which are not always exact repeats. Equal values may be shown once. Read-outs that look alike come from different tables or passages of the source.
Experiments:
Epstein-Barr Virus (EBV) [1] = experiment: EBV-induced stimulation of DNA synthesis in EBV infected human lymphocytes; type: cell-based
Description: (§1) Heparinized whole venous blood was obtained from the umbilical cords of newborn infants (human umbilical cord lymphocytes) or EBV-seronegative volunteers (peripheral blood lymphocytes) in collaboration with Temple University Hospital, Philadelphia, PA. Mononuclear leukocytes were prepared by the Ficoll-Hypaque method of Boyum (Scand. J. Clin. Invest. 21 (Sup. 97), 77 (1968)) and were cultured in RPMI-1640 supplemented with 20% fetal bovine serum as described (Henderson et al, Virology 76, 152 (1977)). The lymphoblastoid cell lines BJAB and RAJI were gifts of Drs. Werner and Gertrude Henle, Children's Hospital, University of Pennsylvania, Philadelphia, PA, and were cultured as described above. The lymphoblastoid line C85-5C was obtained by transformation of human umbilical cord lymphocytes following infection with EBV and maintained as described aove. Cultured mouse L cells were maintained in minimum essential medium (Eagle) supplemented with Earle's salts, L-glutamine and 6% fetal bovine serum. Interferon-treated mouse L cells were supplied by Dr. Esther H. Chang, National Cancer Institute, NIH. […] EBV stocks were maintained at -70° C. until use. Human umbilical cord lymphocytes and peripheral blood lymphocytes were infected as described (Henderson et al, Supra).

uninfected lymphocytes = experiment: DNA synthesis of uninfected lymphocytes; type: cell-based, human
Description: as §1
(§2) The antiviral properties of 5'-dephosphorylated "core" (2'-5')A(pA)2, (2'-5')A(pA)3 and (2'-5')3'dA-(p3'dA)2 were compared to the antiviral properties of IFN-α and IFN-β. The (2'-5')oligonucleotides and interferons inhibited Epstein-Barr Virus (EBV)-induced stimulation of DNA synthesis in EBV infected human lymphocytes. […] The "core" 3'-deoxy (2'-5') oligonucleotide analog inhibited EBV-induced morphological transformation of lymphocytes much the same as "core" (2'-5')A(pA)2 and (2'-5')A(pA)3.

Epstein-Barr Virus (EBV) [2] = experiment: EBV-induced morphological transformation of lymphocytes; type: cell-based; conditions: absence of interferon
Description: as §1, §2

[3] = tested on: Herpes Simplex Virus Type 1 (HSV-1); experiment: Infected centers assay: HSV-1 exposed leukocytes plated onto human foreskin fibroblast monolayers, cytopathic effects (cpe); type: cell-based; conditions: for development of cpe from HSV-1 infected leukocytes / HSV-1 replication: 72 hr incubation, human foreskin fibroblast monolayers
Description: Therefore, we employed an infected centers assay utilizing lymphocytes to determine the ability of (2'-5') oligonucleotides to inhibit HSV-1. After incubation for 72 hr with or without (2'-5')oligonucleotides, leukocytes exposed to HSV-1 were plated onto human foreskin fibroblast monolayers (Table 2).

[4] = tested on: BJAB lymphoblastoid cell line; experiment: Cytotoxicity by colony formation in microtiter plates, BJAB; type: cell-based; conditions: for Concentration at which colony formation was inhibited by greater than 50 percent: treatment for 7 days
Description: as §1
(§3) Therefore, the effect of these agents on colony formation in closely related lymphoblastoid cell lines was determined (Table 3).

[5] = tested on: Raji lymphoblastoid cell line; experiment: Cytotoxicity by colony formation in microtiter plates, Raji; type: cell-based; conditions: for Concentration at which colony formation was inhibited by greater than 50 percent: treatment for 7 days
Description: as §1, §3

[6] = tested on: C85-5C lymphoblastoid cell line; experiment: Cytotoxicity by colony formation in microtiter plates, C85-5C; type: cell-based, human; conditions: treatment for 7 days
Description: as §1, with “Human umbilical cord lymphocytes and peripheral blood lymphocytes were infected as described (Henderson et al, Supra).” left out
as §3

[7] = tested on: lymphoblastoid cell lines; experiment: Lymphoblast colony formation / cytotoxicity, cell line not given; type: cell-based
Description: as §1, with “Mononuclear leukocytes were prepared by the Ficoll-Hypaque method of Boyum (Scand. J. Clin. Invest. 21 (Sup. 97), 77 (1968)) and were cultured in RPMI-1640 supplemented with 20% fetal bovine serum as described (Henderson et al, Virology 76, 152 (1977)).” left out
as §3

[8] = Stability (hydrolysis) in HeLa cell extracts; type: in vitro ADME; conditions: 500 μM; cellulose tlc (solvents A and B)
Description: FIG. 2 is a stability representation of (2'-5')p3 A(pA)n and (2'-5')p3 3'dA(p3'dA)n in HeLa cell extracts.
The stability of (2'-5')ppp3'dA(p3'dA)n in HeLa cell extracts was compared to that of (2'-5')pppA(pA)n. […] With 500 μM (2'-5')pppA(pA)n, there was a 50% hydrolysis in 45 min as determined by DEAE cellulose chromatography; with 500 μM authentic core analog, (2'-5')3'dA(p3'dA)2, there was no hydrolysis as determined by cellulose tlc (solvents A and B). Neither cordycepin nor 3'dAMP was detected. The lack of hydrolysis of the analog may be similar to the lack of hydrolysis of (3'-5')2'-deoxyoligonucleotides by the 2',5'-phosphodiesterase.

Compound	EBV-induced stimulation of DNA synthesis (Epstein-Barr Virus (EBV) [1])	DNA synthesis of uninfected lymphocytes (uninfected lymphocytes)	EBV-induced morphological transformation of lymphocytes (Epstein-Barr Virus (EBV) [2])	cpe at given number of HSV-exposed leukocytes per cell ([3]; 10 μM, 2 × 10^5 leukocytes)	cpe at given number of HSV-exposed leukocytes per cell ([3]; 10 μM, 2.2 × 10^4 leukocytes)	cpe at given number of HSV-exposed leukocytes per cell ([3]; 10 μM, 6.7 × 10^4 leukocytes)	cpe at given number of HSV-exposed leukocytes per cell ([3]; 50 μM, 2 × 10^5 leukocytes)	cpe at given number of HSV-exposed leukocytes per cell ([3]; 50 μM, 2.2 × 10^4 leukocytes)	cpe at given number of HSV-exposed leukocytes per cell ([3]; 50 μM, 6.7 × 10^4 leukocytes)	cpe at given number of HSV-exposed leukocytes per cell ([3]; 75 μM, 2 × 10^5 leukocytes)	cpe at given number of HSV-exposed leukocytes per cell ([3]; 75 μM, 2.2 × 10^4 leukocytes)	cpe at given number of HSV-exposed leukocytes per cell ([3]; 75 μM, 6.7 × 10^4 leukocytes)	cpe at given number of HSV-exposed leukocytes per cell ([3]; 150 μM, 2 × 10^5 leukocytes)	cpe at given number of HSV-exposed leukocytes per cell ([3]; 150 μM, 2.2 × 10^4 leukocytes)	cpe at given number of HSV-exposed leukocytes per cell ([3]; 150 μM, 6.7 × 10^4 leukocytes)	development of cpe from HSV-1 infected leukocytes / HSV-1 replication [3]	Concentration at which colony formation was inhibited by greater than 50 percent [4] [µM]	Concentration at which colony formation was inhibited by greater than 50 percent [5] [µM]	concentration found toxic (inhibition of colony formation) [4]	concentration found toxic (inhibition of colony formation) [5]	also measured
Nc1ncnc2c1ncn2[C@@H]1O[C@H](COP(=O)(O)O[C@@H]2[C@H](O)[C@@H](COP(=O)(O)O[C@@H]3[C@H](O)[C@@H](COP(=O)(O)O[C@@H]4[C@H](O)[C@@H](CO)O[C@H]4n4cnc5c(N)ncnc54)O[C@H]3n3cnc4c(N)ncnc43)O[C@H]2n2cnc3c(N)ncnc32)[C@@H](O)[C@H]1O [(2'-5')A(pA)3, adenylyl(2'-5')adenylyl(2'-5')-adenylyl (2'-5')adenosine]	potent inhibitors	potent inhibitors	inhibited	++	0	+	+	0	0	++	0	0	+	0	0	inhibited the development of cpe	150	50	–	–	–
Nc1ncnc2c1ncn2[C@@H]1O[C@H](COP(=O)(O)O[C@@H]2[C@H](O)[C@@H](COP(=O)(O)O[C@@H]3[C@H](O)[C@@H](CO)O[C@H]3n3cnc4c(N)ncnc43)O[C@H]2n2cnc3c(N)ncnc32)[C@@H](O)[C@H]1O [(2'-5')A(pA)2, adenylyl-(2'-5')adenylyl(2'-5')adenosine]	potent inhibitors	potent inhibitors	inhibited	+++	0	++	++	0	++	++	0	0	+	0	0	inhibited the development of cpe	150 to 300	300	150 to 300 µM and 300 µM	150 to 300 µM and 300 µM	–
IFN-α	inhibited	–	–	–	–	–	–	–	–	–	–	–	–	–	–	–	–	–	–	–	Concentration at which colony formation was inhibited by greater than 50 percent [6]: > 1000 U/ml; cytotoxicity / effect on lymphoblast colony formation [7]: no appreciable effect
Nc1ncnc2c1ncn2[C@@H]1O[C@H](COP(=O)(O)O[C@@H]2C[C@@H](COP(=O)(O)O[C@@H]3C[C@@H](CO)O[C@H]3n3cnc4c(N)ncnc43)O[C@H]2n2cnc3c(N)ncnc32)C[C@H]1O [(2'-5')3'dA(p3'dA)2, 3'-deoxyadenylyl (2'-5')3'-deoxyadenylyl(2'-5')3'-deoxyadenosine]	inhibited only viral-induced DNA synthesis	inhibited only viral-induced DNA synthesis	inhibited	+++	+	++	++	+	++	++	0	+	–	0	–	less effective in inhibiting the development of cpe	> 300	> 300	no toxicity	no toxicity	hydrolysis in HeLa cell extracts [8]: no hydrolysis; concentration found toxic (inhibition of colony formation) ([4]; listed as (2'-5')2'dA(p3'dA)3): > 300 µM; concentration found toxic (inhibition of colony formation) ([5]; listed as (2'-5')2'dA(p3'dA)3): > 300 µM

Reference: patent publication US4464359A, “(2'-5')-Oligo (3'-deoxyadenylate) and derivatives thereof” (Research Corporation, priority 1981, dated 1984)
